# Measured values reported in PubChem BioAssay AID330 (DTP/NCI, 2004).
# Where “and” joins values, the source holds several entries; their conditions need not be identical. Identical values can stand only once. Toxic doses and inconclusive results are not listed.
# System: P388 leukemia ip, CD2F1 mice, survival T/C
# Assay: NCI In Vivo Anticancer Drug Screen. Data for tumor model P388 Leukemia (intraperitoneal) in CD2F1 (CDF1) mice
# Conditions: endpoint: median survival time, higher = longer survival
# Method in brief: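 Mice carrying the transplanted tumor received test compound or vehicle. Survival was recorded in each group, and the value is the treated-group measurement divided by that of the vehicle-treated control group.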
# [1] = dose: 50.0 mg/kg/injection, schedule: Q01DX009 (ip), vehicle: saline with Tween-80
# [2] = dose: 100.0 mg/kg/injection, schedule: Q01DX009 (ip), vehicle: saline with Tween-80
# [3] = dose: 12.5 mg/kg/injection, schedule: Q01DX009 (ip), vehicle: saline with Tween-80
# [4] = dose: 25.0 mg/kg/injection, schedule: Q01DX009 (ip), vehicle: saline with Tween-80
# [5] = dose: 200.0 mg/kg/injection, schedule: Q01DX009 (ip), vehicle: saline with Tween-80
# [6] = dose: 25.0 mg/kg/injection, schedule: Q01DX009 (ip), vehicle: suspension in saline
# [7] = dose: 50.0 mg/kg/injection, schedule: Q01DX009 (ip), vehicle: suspension in saline
# [8] = dose: 50.0 mg/kg/injection, schedule: Q01DX005 (ip), vehicle: saline with Tween-80
# [9] = dose: 100.0 mg/kg/injection, schedule: Q01DX005 (ip), vehicle: saline with Tween-80
# [10] = dose: 200.0 mg/kg/injection, schedule: Q01DX005 (ip), vehicle: saline with Tween-80
smiles,measurement,setting,value
CC(=O)OC1C(O)C(C)OC(OC2C(OC(=O)C3CCC4C(C3)OC3(CC(OC(=O)/C=C/c5ccccc5)C(C)CO3)C43CO3)OC(C)C(O)C2OC(C)=O)C1O (configuration not stated),T/C,"dose: 0.25 mg/kg/injection, schedule: Q01DX009 (ip), vehicle: saline",91 % of control
same,T/C,"dose: 0.5 mg/kg/injection, schedule: Q01DX009 (ip), vehicle: saline",100 % of control
same,T/C,"dose: 1.0 mg/kg/injection, schedule: Q01DX009 (ip), vehicle: saline + alcohol",113 % of control
same,T/C,"dose: 1.0 mg/kg/injection, schedule: Q01DX009 (ip), vehicle: saline",110 % of control
same,T/C,"dose: 2.0 mg/kg/injection, schedule: Q01DX009 (ip), vehicle: saline + alcohol",119 % of control
same,T/C,"dose: 2.0 mg/kg/injection, schedule: Q01DX009 (ip), vehicle: saline",117 % of control
same,T/C,"dose: 4.0 mg/kg/injection, schedule: Q01DX009 (ip), vehicle: saline + alcohol",124 % of control
CCOc1ccc(Nc2ccc(/C(=C3\C=CC(=[N+](CC)Cc4cccc(S(=O)(=O)O)c4)C=C3C)c3ccc(N(CC)Cc4cccc(S(=O)(=O)O)c4)cc3C)cc2)cc1,T/C,[1],98 % of control
same,T/C,[2],97 % of control
CCCCN(CCCC)CC(O)c1cc(-c2ccc(Cl)cc2)nc(-c2ccc(Cl)cc2)c1 (configuration not stated),T/C,[3],90 % of control
same,T/C,[4],90 % of control
same,T/C,[1],92 % of control and 93 % of control
same,T/C,[2],90 % of control
CC(=O)NS(=O)(=O)c1ccc(N=CC2C(=O)N(c3ccccc3)N(c3ccccc3)C2=O)cc1,T/C,"dose: 25.0 mg/kg/injection, schedule: Q01DX001 (ip), vehicle: Klucel (hydroxypropylcellulose) (HPC)",86 % of control
same,T/C,"dose: 50.0 mg/kg/injection, schedule: Q01DX001 (ip), vehicle: Klucel (hydroxypropylcellulose) (HPC)",91 % of control
same,T/C,"dose: 100.0 mg/kg/injection, schedule: Q01DX001 (ip), vehicle: Klucel (hydroxypropylcellulose) (HPC)",92 % of control
O=c1[nH]ccc2occc12,T/C,[4],100 % of control
same,T/C,[1],100 % of control
same,T/C,[2],109 % of control
O=C1C=CC(Nc2ccccc2[N+](=O)[O-])C1Nc1ccccc1[N+](=O)[O-] (configuration not stated),T/C,"dose: 60.0 mg/kg/injection, schedule: Q01DX005 (ip), vehicle: saline with Tween-80",114 % of control
same,T/C,"dose: 120.0 mg/kg/injection, schedule: Q01DX005 (ip), vehicle: saline with Tween-80",113 % of control
CCOC(=O)C[N+]12CCC34c5ccccc5N5C(=O)CC6OCC=C(C1)C(CC32)C6C54 (configuration not stated),T/C,[3],113 % of control
same,T/C,[4],106 % of control
CCCCc1ccc(Nc2c(C(=O)O)cnc3cc4c(cc23)OCO4)cc1,T/C,"dose: 60.0 mg/kg/injection, schedule: Q01DX005 (ip), vehicle: Klucel + Tween-80",103 % of control
same,T/C,"dose: 120.0 mg/kg/injection, schedule: Q01DX005 (ip), vehicle: Klucel + Tween-80",100 % of control
same,T/C,"dose: 240.0 mg/kg/injection, schedule: Q01DX005 (ip), vehicle: Klucel + Tween-80",97 % of control
COc1cc(C(C)(C)C)cc(OC)c1Br,T/C,[1],101 % of control
same,T/C,[2],88 % of control
same,T/C,[5],90 % of control
CC12CC3(C)CC(C)(C1)CC(C(Cl)C(=O)O)(C2)C3 (configuration not stated),T/C,[6],98 % of control
same,T/C,[7],100 % of control
CCC1=CC2CN3CCc4c([nH]c5ccccc45)C(C(=O)OC)(C2)C13 (configuration not stated),T/C,[8],105 % of control
same,T/C,[9],108 % of control
COc1cc2c(cc1C[N+](C)(C)CSc1ccccc1)-c1ccccc1CC2,T/C,"dose: 1.25 mg/kg/injection, schedule: Q01DX005 (ip), vehicle: DMSO",108 % of control
same,T/C,"dose: 2.5 mg/kg/injection, schedule: Q01DX005 (ip), vehicle: DMSO",101 % of control
same,T/C,"dose: 5.0 mg/kg/injection, schedule: Q01DX005 (ip), vehicle: DMSO",105 % of control
N#C/C(=C\c1ccccc1)C(=O)Nc1ccccc1,T/C,"dose: 6.25 mg/kg/injection, schedule: Q01DX009 (ip), vehicle: suspension in saline",99 % of control
same,T/C,"dose: 12.5 mg/kg/injection, schedule: Q01DX009 (ip), vehicle: suspension in saline",100 % of control
same,T/C,[6],99 % of control
same,T/C,[7],97 % of control
CCOC(=O)c1c(Nc2ccccc2O)oc2ccccc12,T/C,"dose: 100.0 mg/kg/injection, schedule: Q04DX003 (ip), vehicle: Klucel (hydroxypropylcellulose) (HPC)",98 % of control
same,T/C,"dose: 200.0 mg/kg/injection, schedule: Q04DX003 (ip), vehicle: Klucel (hydroxypropylcellulose) (HPC)",92 % of control
same,T/C,"dose: 400.0 mg/kg/injection, schedule: Q04DX003 (ip), vehicle: Klucel (hydroxypropylcellulose) (HPC)",95 % of control
N=C(N)c1ccc2nc(/C=C\c3nc4ccc(C(=N)N)cc4[nH]3)[nH]c2c1,T/C,"dose: 100.0 mg/kg/injection, schedule: Q04DX002 (ip), vehicle: saline",110 % of control
same,T/C,"dose: 200.0 mg/kg/injection, schedule: Q04DX002 (ip), vehicle: saline",117 % of control
COc1cc2c(cc1OC)[C@H]1C(=O)c3cc4c(cc3[C@H]1N(C)C2=O)OCO4,T/C,"dose: 12.5 mg/kg/injection, schedule: Q01DX005 (ip), vehicle: distilled water + Tween-80",94 % of control
same,T/C,"dose: 25.0 mg/kg/injection, schedule: Q01DX005 (ip), vehicle: distilled water + Tween-80",96 % of control
same,T/C,"dose: 50.0 mg/kg/injection, schedule: Q01DX005 (ip), vehicle: distilled water + Tween-80",91 % of control
CCCCCCCCOS(=O)(=O)c1ccc([N+](C)(C)C)cc1,T/C,"dose: 12.5 mg/kg/injection, schedule: Q01DX009 (ip), vehicle: saline",103 % of control
same,T/C,"dose: 25.0 mg/kg/injection, schedule: Q01DX009 (ip), vehicle: saline",105 % of control
same,T/C,"dose: 50.0 mg/kg/injection, schedule: Q01DX009 (ip), vehicle: saline",110 % of control
COc1ccc2c(NCCCCCCCCNc3c4ccc(OC)cc4nc4c(OC)cccc34)c3cccc(OC)c3nc2c1,T/C,"dose: 0.63 mg/kg/injection, schedule: Q01DX009 (ip), vehicle: other",166 % of control
same,T/C,"dose: 2.5 mg/kg/injection, schedule: Q01DX009 (ip), vehicle: other",120 % of control
same,T/C,"dose: 5.0 mg/kg/injection, schedule: Q01DX009 (ip), vehicle: other",86 % of control
Cc1ccc(/C=N/NC(=O)C(=O)Nc2ccc(Cl)c([N+](=O)[O-])c2)cc1,T/C,"dose: 6.25 mg/kg/injection, schedule: Q01DX005 (ip), vehicle: saline with Tween-80",88 % of control
same,T/C,"dose: 12.5 mg/kg/injection, schedule: Q01DX005 (ip), vehicle: saline with Tween-80",95 % of control
COC(=O)CC1(C(=O)OC)C(Sc2ccccc2)=C(c2ccccc2)N2CCCC21 (configuration not stated),T/C,"dose: 21.88 mg/kg/injection, schedule: Q01DX009 (ip), vehicle: Klucel (hydroxypropylcellulose) (HPC)",101 % of control
same,T/C,"dose: 43.75 mg/kg/injection, schedule: Q01DX009 (ip), vehicle: Klucel (hydroxypropylcellulose) (HPC)",96 % of control
same,T/C,"dose: 87.5 mg/kg/injection, schedule: Q01DX009 (ip), vehicle: Klucel (hydroxypropylcellulose) (HPC)",96 % of control
same,T/C,"dose: 175.0 mg/kg/injection, schedule: Q01DX009 (ip), vehicle: Klucel (hydroxypropylcellulose) (HPC)",92 % of control
CC(C)(C)OC(=O)NC1CN(OCc2ccccc2)C1=O (configuration not stated),T/C,[8],100 % of control
same,T/C,[9],94 % of control
same,T/C,[10],89 % of control
O=C(OCC1OC(n2cnc3c(=S)nc[nH]c32)C(OC(=O)c2ccc(Cl)cc2)C1OC(=O)c1ccc(Cl)cc1)c1ccc(Cl)cc1 (configuration not stated),T/C,[1],90 % of control
same,T/C,[2],90 % of control
same,T/C,[5],90 % of control
same,T/C,"dose: 400.0 mg/kg/injection, schedule: Q01DX009 (ip), vehicle: saline with Tween-80",90 % of control
Cn1c(N(CCN2CCOCC2)C(=O)/C=C\c2ccccc2)cc(=O)n(C)c1=O,T/C,[8],105 % of control
same,T/C,"dose: 50.0 mg/kg/injection, schedule: Q01DX005 (ip), vehicle: water",103 % of control
same,T/C,[9],100 % of control
same,T/C,"dose: 100.0 mg/kg/injection, schedule: Q01DX005 (ip), vehicle: water",112 % of control
same,T/C,[10],97 % of control
same,T/C,"dose: 200.0 mg/kg/injection, schedule: Q01DX005 (ip), vehicle: water",109 % of control
Brc1ccc(-n2c(-c3ccccc3)cs/c2=N\Nc2nnc(-c3ccccc3)c(-c3ccccc3)n2)cc1,T/C,[8],101 % of control
same,T/C,[9],87 % of control
same,T/C,[10],92 % of control
CC(=O)CC1(O)C(=O)Nc2ccc(Br)cc21 (configuration not stated),T/C,"dose: 50.0 mg/kg/injection, schedule: Q01DX009 (ip), vehicle: Klucel (hydroxypropylcellulose) (HPC)",100 % of control
same,T/C,"dose: 100.0 mg/kg/injection, schedule: Q01DX009 (ip), vehicle: Klucel (hydroxypropylcellulose) (HPC)",108 % of control
same,T/C,"dose: 200.0 mg/kg/injection, schedule: Q01DX009 (ip), vehicle: Klucel (hydroxypropylcellulose) (HPC)",92 % of control
Cc1n[nH]c(=O)c(C#N)c1C,T/C,"dose: 50.0 mg/kg/injection, schedule: Q01DX005 (ip), vehicle: Klucel (hydroxypropylcellulose) (HPC)",95 % of control
same,T/C,"dose: 100.0 mg/kg/injection, schedule: Q01DX005 (ip), vehicle: Klucel (hydroxypropylcellulose) (HPC)",100 % of control
same,T/C,"dose: 200.0 mg/kg/injection, schedule: Q01DX005 (ip), vehicle: Klucel (hydroxypropylcellulose) (HPC)",95 % of control
